Reference: US11746100B2 (GLOBAL BLOOD THERAPEUTICS, INC., priority 2020, dated 2023)

biological target: T1, human ferroportin (Homo sapiens, UniProt Q9NP59); assay: Biological in-vitro ferroportin internalization assay (luciferase reporter); type: cell-based; conditions: average pEC50; stably-transfected CHO cell line expressing human ferroportin tagged to a luciferase reporter; 6 h incubation with test compound
T1 construct: luciferase reporter (read with the Nano-Glo Luciferase Assay System); expressed in transfected cells; host or cells: CHO cells, stably transfected, expression induced with doxycycline
T1 sequence (Q9NP59 1-571): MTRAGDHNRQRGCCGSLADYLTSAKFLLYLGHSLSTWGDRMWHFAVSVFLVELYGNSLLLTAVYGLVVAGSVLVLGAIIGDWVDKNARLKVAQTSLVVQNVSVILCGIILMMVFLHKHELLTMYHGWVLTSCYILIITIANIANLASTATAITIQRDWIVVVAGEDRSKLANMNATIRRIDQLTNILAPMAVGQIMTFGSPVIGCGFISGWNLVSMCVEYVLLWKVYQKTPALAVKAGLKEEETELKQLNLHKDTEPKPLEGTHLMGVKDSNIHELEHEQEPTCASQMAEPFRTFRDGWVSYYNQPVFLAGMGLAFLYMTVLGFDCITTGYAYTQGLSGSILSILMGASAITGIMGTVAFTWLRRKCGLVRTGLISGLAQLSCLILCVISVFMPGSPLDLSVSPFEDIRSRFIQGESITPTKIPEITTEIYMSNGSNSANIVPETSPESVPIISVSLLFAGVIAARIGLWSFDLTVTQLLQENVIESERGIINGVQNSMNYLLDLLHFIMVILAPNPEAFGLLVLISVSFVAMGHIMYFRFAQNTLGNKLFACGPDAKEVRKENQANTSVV
Summary of the method: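 Read-out is Nano-Glo luciferase signal after 6 h compound exposure, with average pEC50 derived. Cells are a stable CHO line carrying luciferase-tagged human ferroportin, pre-loaded 24 h with ferric ammonium citrate and doxycycline-induced for 24 h.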

Row | pEC50 | SMILES
1 | 7.1 | CCOc1ccnc(-c2nc3c(c(N(C)CC(=O)Nc4cnc(OC)nc4)n2)CCC3)c1 [Compound 259, 2-{[2-(4-ethoxypyridin-2-yl)-5H,6H,7H-cyclopenta[d]pyrimidin-4-yl](methyl)amino}-N-(2-methoxypyrimidin-5-yl)acetamide]
2 | 7.1 | CN(c1nc(-c2ccccn2)nc2c1CCC2)[C@H]1CCN(c2ccccc2)C1=O [Compound 131, (3S)-3-{methyl[2-(pyridin-2-yl)-5H,6H,7H-cyclopenta[d]pyrimidin-4-yl]amino}-1-phenylpyrrolidin-2-one]
3 | 7 | CN(CC(=O)NC(C)(C)CO)c1nc(-c2cn(CCCO)cn2)nc2c1CCC2 [Compound 275, N-(1-hydroxy-2-methylpropan-2-yl)-2-({2-[1-(3-hydroxypropyl)-1H-imidazol-4-yl]-5H,6H,7H-cyclopenta[d]pyrimidin-4-yl}(methyl)amino)acetamide]
4 | 7.8 | C[C@@H]1C[C@@H](Oc2ccnc(-c3nc4c(c(N(C)CC(=O)NC(C)(C)C)n3)CCC4)c2)CN1C [Compound 488, N-tert-butyl-2-{[2-(4-{[(3R,5R)-1,5-dimethylpyrrolidin-3-yl]oxy}pyridin-2-yl)-5H,6H,7H-cyclopenta[d]pyrimidin-4-yl](methyl)amino}acetamide]
5 | 7.7 | CN(CC(=O)NC(C)(C)C)c1nc(-c2cc(OCC(O)CO)ccn2)nc2c1CCC2 (stereo in doubt) [Compound 415, N-tert-butyl-2-[(2-{4-[(2R)-2,3-dihydroxypropoxy]pyridin-2-yl}-5H,6H,7H-cyclopenta[d]pyrimidin-4-yl)(methyl)amino]acetamidede]
6 | 6.6 | CN(CCOc1ccccc1)c1nc(-c2ccccn2)nc2c1CCC2 [Compound 87, N-methyl-N-(2-phenoxyethyl)-2-(pyridin-2-yl)-5H,6H,7H-cyclopenta[d]pyrimidin-4-amine]
7 | 8.0 | CN1CC[C@@H](Oc2ccnc(-c3nc4c(c(N(C)CC(=O)NC(C)(C)C)n3)CCC4)c2)C1 [Compound 437, N-tert-butyl-2-{methyl[2-(4-{[(3R)-1-methylpyrrolidin-3-yl]oxy}pyridin-2-yl)-5H,6H,7H-cyclopenta[d]pyrimidin-4-yl]amino}acetamide]
8 | 7.2 | CN(c1nc(-c2ccccn2)nc2c1CCC2)[C@@H](CO)C(=O)NC(C)(C)C [Compound 123, (2S)—N-tert-butyl-3-hydroxy-2-{methyl[2-(pyridin-2-yl)-5H,6H,7H-cyclopenta[d]pyrimidin-4-yl]amino}propanamide]
9 | 8.2 | CN(CC(=O)NC1CCCC1)c1nc(-c2cc(OCC(C)(C)O)ccn2)nc2c1CCC2 [Compound 421, N-cyclopentyl-2-({2-[4-(2-hydroxy-2-methylpropoxy)pyridin-2-yl]-5H,6H,7H-cyclopenta[d]pyrimidin-4-yl}(methyl)amino)acetamide]
10 | 7.4 | CN(C)CCOc1ccnc(-c2cc(N(C)CC(=O)NC(C)(C)C)c3c(n2)CCC3)c1 [Compound 495, N-tert-butyl-2-[(2-{4-[2-(dimethylamino)ethoxy]pyridin-2-yl}-5H,6H,7H-cyclopenta[b]pyridin-4-yl)(methyl)amino]acetamide]
11 | 7 | CN(CC(=O)NC1(C(F)(F)F)CC1)c1nc(-c2ccccn2)nc2c1CCC2 [Compound 98, 2-{methyl[2-(pyridin-2-yl)-5H,6H,7H-cyclopenta[d]pyrimidin-4-yl]amino}-N-[1-(trifluoromethyl)cyclopropyl]acetamide]
12 | 7.6 | CN(CC(=O)N[C@@H]1CCC[C@@H]1O)c1nc(-c2cc(OCC(C)(C)O)ccn2)nc2c1CCC2 [Compound 397, 2-({2-[4-(2-hydroxy-2-methylpropoxy)pyridin-2-yl]-5H,6H,7H-cyclopenta[d]pyrimidin-4-yl}(methyl)amino)-N-[(1R,2S)-2-hydroxycyclopentyl]acetamide]
13 | 6.6 | CN(CC(=O)NC(C)(C)C)c1cc(-c2ccccn2)nc2c1CCC2 [Compound 16, N-tert-butyl-2-{methyl[2-(pyridin-2-yl)-5H,6H,7H-cyclopenta[b]pyridin-4-yl]amino}acetamide]
14 | 7.3 | COc1ccnc(-c2nc3c(c(N(C)CC(=O)N[C@H](C)CO)n2)CCC3)c1 [Compound 458, N-[(2R)-1-hydroxypropan-2-yl]-2-{[2-(4-methoxypyridin-2-yl)-5H,6H,7H-cyclopenta[d]pyrimidin-4-yl](methyl)amino}acetamidede]
15 | 7.4 | CN(CC(=O)Nc1nnc(N2CCCCCC2)s1)c1nc(-c2ccccn2)nc2c1CCC2 [Compound 70, N-[5-(azepan-1-yl)-1,3,4-thiadiazol-2-yl]-2-{methyl[2-(pyridin-2-yl)-5H,6H,7H-cyclopenta[d]pyrimidin-4-yl]amino}acetamide]
16 | 6.4 | COc1cccc(N2CCCN(c3nc(-c4ccccn4)nc4c3CCC4)CC2)c1 [Compound 4, 1-(3-methoxyphenyl)-4-[2-(pyridin-2-yl)-5H,6H,7H-cyclopenta[d]pyrimidin-4-yl]-1,4-diazepane]
17 | 7.8 | CC(C)NC(=O)CN(C)c1nc(-c2cc(OCCN(C)C)ccn2)nc2c1C(C)(C)CC2 [Compound 435, 2-[(2-{4-[2-(dimethylamino)ethoxy]pyridin-2-yl}-5,5-dimethyl-5H,6H,7H-cyclopenta[d]pyrimidin-4-yl)(methyl)amino]-N-(propan-2-yl)acetamide]
18 | 7.5 | CN(CC(=O)N1CCC(F)CC1)c1nc(-c2cc(OCCO)ccn2)nc2c1CCC2 [Compound 359, 1-(4-fluoropiperidin-1-yl)-2-({2-[4-(2-hydroxyethoxy)pyridin-2-yl]-5H,6H,7H-cyclopenta[d]pyrimidin-4-yl}(methyl)amino)ethan-1-one]
19 | 7.1 | CN(c1nc(-c2cc(OCCO)ccn2)nc2c1CCC2)[C@H]1CCCN(c2cccc(F)c2)C1=O [Compound 320, (3S)-1-(3-fluorophenyl)-3-({2-[4-(2-hydroxyethoxy)pyridin-2-yl]-5H,6H,7H-cyclopenta[d]pyrimidin-4-yl}(methyl)amino)piperidin-2-one]
20 | 7.7 | CN(CC(=O)NC(C)(C)C)c1nc(-c2cc(OC3COC3)ccn2)nc2c1CCC2 [Compound 245, N-tert-butyl-2-[methyl({2-[4-(oxetan-3-yloxy)pyridin-2-yl]-5H,6H,7H-cyclopenta[d]pyrimidin-4-yl})amino]acetamide]
21 | 6.9 | CSCC[C@@H](C(=O)NC(C)(C)C)N(C)c1nc(-c2ccccn2)nc2c1CCC2 [Compound 117]
22 | 7 | COc1cnc(NC(=O)CN(C)c2nc(-c3cc(OCCO)ccn3)nc3c2CCC3)nc1 [Compound 295, 2-({2-[4-(2-hydroxyethoxy)pyridin-2-yl]-5H,6H,7H-cyclopenta[d]pyrimidin-4-yl}(methyl)amino)-N-(5-methoxypyrimidin-2-yl)acetamide]
23 | 7.9 | CN(CC(=O)NCC(F)(F)F)c1nc(-c2cc(OCC(C)(C)O)ccn2)nc2c1CCC2 [Compound 479, 2-({2-[4-(2-hydroxy-2-methylpropoxy)pyridin-2-yl]-5H,6H,7H-cyclopenta[d]pyrimidin-4-yl}(methyl)amino)-N-(2,2,2-trifluoroethyl)acetamide]
24 | 7.4 | CN(CC(=O)Nc1cccc(F)c1)c1nc(-c2cc(OCC3(O)CC3)ccn2)nc2c1CCC2 [Compound 307, N-(3-fluorophenyl)-2-[(2-{4-[(1-hydroxycyclopropyl)methoxy]pyri-din-2-yl}-5H,6H,7H-cyclopenta[d]pyrimidin-4-yl)(methyl)amino]acetamide]
25 | 8.0 | CCN1CC[C@@H](Oc2ccnc(-c3nc4c(c(N(C)CC(=O)NC(C)(C)C)n3)CCC4)c2)C1 [Compound 496, N-tert-butyl-2-{[2-(4-{[(3R)-1-ethylpyrrolidin-3-yl]oxy}pyridin-2-yl)-5H,6H,7H-cyclopenta[d]pyrimidin-4-yl](methyl)amino}acetamide]
26 | 5.7 | O=C1CN(c2nc(-c3ccccn3)nc3c2CCC3)CCCN1 [Compound 47, 4-[2-(pyridin-2-yl)-5H,6H,7H-cyclopenta[d]pyrimidin-4-yl]-1,4-diazepan-2-one]
27 | 6.9 | CN(c1nc(-c2ccccn2)nc2c1CCC2)[C@H]1CCN(c2ccc(F)cc2)C1=O [Compound 206, (3S)-1-(4-fluorophenyl)-3-{methyl[2-(pyridin-2-yl)-5H,6H,7H-cyclopenta[d]pyrimidin-4-yl]amino}pyrrolidin-2-one]
28 | 7.8 | CCN(CC(=O)NC(C)(C)C)c1nc(-c2cc(OCCO)ccn2)nc2c1CCC2 [Compound 360, N-tert-butyl-2-[ethyl({2-[4-(2-hydroxyethoxy)pyridin-2-yl]-5H,6H,7H-cyclopenta[d]pyrimidin-4-yl})amino]acetamide]

Row | SMILES | pEC50
29 | c1ccc(-c2nc3c(c(N4CCCO[C@H]5CCC[C@@H]54)n2)CCC3)nc1 [Compound 18, 2-{4-[(5aS,8aS)-octahydro-2H-cyclopenta[b][1,4]oxazepin-5-yl]-5H,6H,7H-cyclopenta[d]pyrimidin-2-yl}pyridine] | 7.1
